Earlier results, collected in patent publication US20220273645A1, “NALTREXONE FORMULATION” (INTAS PHARMACEUTICALS LTD., priority 2019, published 2022).

How the values were obtained:
[1] = tested on: children with moderate to severe Crohn's disease; details: sole therapy in children with moderate-to-severe Crohn's disease
Crohn's disease = details: low dose; versus other standard therapy

For `O=C1CC[C@@]2(O)[C@H]3Cc4ccc(O)c5c4[C@@]2(CCN3CC2CC2)[C@H]1O5` [low dose naltrexone, (4R,4aS,7aR,12bS)-3-(cyclopropylmethyl)-4a,9-dihydroxy-2,4,5,6,7a,13-hexahydro-1H-4,12-methano benzofuro[3,2-e]isoquinoline-7-one], the “tolerability / serious adverse events” value [1] is listed as “well tolerated without any serious adverse events” and the “safety and effectiveness for the treatment of Crohn's disease” value (Crohn's disease) is listed as “safe, effective”.
